{"source": "paper PMC4923908", "about": "“In vitro and in vivo study of epigallocatechin-3-gallate-induced apoptosis in aerobic glycolytic hepatocellular carcinoma cells involving inhibition of phosphofructokinase activity” (Scientific Reports, 2016)", "molecules": {"B1": {"name": "Phosphofructokinase (PFK) purified from rabbit skeletal muscle (enzyme, UniProt P00511 1-780, looked up)", "chain": "MTHEEHHAARTLGVGKAIAVLTSGGDAQGMNAAVRAVVRVGIFTGARVFFVHEGYQGLVDGGDHIREATWESVSMMLQLGGTVIGSARCKDFREREGRLRAAHNLVKRGITNLCVIGGDGSLTGADTFRSEWSDLLSDLQKAGKITAEEATRSSYLNIVGLVGSIDNDFCGTDMTIGTDSALHRITEIVDAITTTAQSHQRTFVLEVMGRHCGYLALVTSLSCGADWVFIPECPPDDNWEDHLCRRLSETRTRGSRLNIIIVAEGAIDRNGKPITSEGVKDLVVRRLGYDTRVTVLGHVQRGGTPSAFDRILGSRMGVEAVMALLEGTPDTPACVVSLSGNQAVRLPLMECVQVTKDVTKAMDEKRFDEAMKLRGRSFMNNWEVYKLLAHIRPPAPKSGSYTVAVMNVGAPAAGMNAAVRSTVRIGLIQGNRVLVVHDGFEGPAKGQIEEAGWSYVGGWTGQGGSKLGSKRTLPKKSFEQISANITKFNIQGLVIIGGFEAYTGGLELMEGRKQFDELCIPFVVIPATVSNNVPGSDFSVGADTALNTICTTCDRIKQSAAGTKRRVFIIETMGGYCGYLATMAGLAAGADAAYIFEEPFTIRDLQANVEHLVQKMKTTVKRGLVLRNEKCNENYTTDFIFNLYSEEGKGIFDSRKNVLGHMQQGGSPTPFDRNFATKMGAKAMNWMAGKIKESYRNGRIFANTPDSGCVLGMRKRALVFQPVTELQNQTDFEHRIPKEQWWLKLRPILKILAKYEIDLDTSEHAHLEHISRKRSGEATV", "notes": "Phosphofructokinase from rabbit skeletal muscle (muscle-type ATP-dependent 6-phosphofructokinase); no identifier or residues printed; The number of copies therefore depends on the condition; also called purified PFK; PFK1; source: purified from rabbit skeletal muscle"}}, "key": {"[1]": {"target": "T1, Phosphofructokinase (PFK), purified from rabbit skeletal muscle (Oryctolagus cuniculus, UniProt P00511)", "T1 construct": "gene PFKM", "T1 sequence (P00511 2-780)": "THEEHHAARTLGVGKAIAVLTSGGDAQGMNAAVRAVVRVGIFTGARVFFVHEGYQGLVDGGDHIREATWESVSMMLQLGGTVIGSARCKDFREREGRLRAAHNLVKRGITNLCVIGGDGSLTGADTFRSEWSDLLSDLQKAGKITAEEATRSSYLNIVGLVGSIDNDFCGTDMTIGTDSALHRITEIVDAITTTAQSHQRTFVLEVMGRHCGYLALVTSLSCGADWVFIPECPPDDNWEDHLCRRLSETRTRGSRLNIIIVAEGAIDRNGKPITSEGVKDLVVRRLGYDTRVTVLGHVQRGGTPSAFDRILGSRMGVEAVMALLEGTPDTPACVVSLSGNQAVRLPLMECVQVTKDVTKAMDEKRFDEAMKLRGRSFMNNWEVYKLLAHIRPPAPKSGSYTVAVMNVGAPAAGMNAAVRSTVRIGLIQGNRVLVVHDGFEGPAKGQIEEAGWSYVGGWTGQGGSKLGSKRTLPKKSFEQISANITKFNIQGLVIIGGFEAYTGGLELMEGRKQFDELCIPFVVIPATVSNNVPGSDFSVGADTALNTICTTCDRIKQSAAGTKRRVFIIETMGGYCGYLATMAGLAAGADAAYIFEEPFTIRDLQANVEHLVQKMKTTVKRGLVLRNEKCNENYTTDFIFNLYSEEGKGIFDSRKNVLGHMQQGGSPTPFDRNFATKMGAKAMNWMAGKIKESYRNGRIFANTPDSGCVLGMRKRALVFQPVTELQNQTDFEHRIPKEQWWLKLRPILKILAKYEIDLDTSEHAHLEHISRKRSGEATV", "assay": "radiometric assay of purified PFK ([γ-32P]ATP); supported by intrinsic fluorescence center-of-mass shift (tetramer to dimer)", "type": "biochemical"}, "[2]": {"target": "the molecule itself", "assay": "intrinsic fluorescence spectra (center of mass); purified PFK incubated 1 h with 0, 25, 50, 100 and 200 uM EGCG; conditions as for the radioassay (50 mM Tris-HCl pH 7.4, 5 mM MgCl2, 5 mM (NH4)2SO4, 1 mM F6P, 1 mM ATP, 1 mg/ml purified PFK); excitation 280 nm, emission 300-400 nm; tetramer to dimers"}}, "data": [{"molecule": "O=C(O[C@@H]1Cc2c(O)cc(O)cc2O[C@@H]1c1cc(O)c(O)c(O)c1)c1cc(O)c(O)c(O)c1", "note": "[EGCG, epigallocatechin-3-gallate]", "values": [{"measurement": "IC50", "setting": "[1]", "result": 124, "unit": "µM"}]}, {"molecule": "B1", "values": [{"measurement": "stoichiometry N", "setting": "[2]", "result": 2}]}]}
